This passage reports binding results from article PMC3546743 (2012).

This test deals with modified aptamer M3.2 (DNA, aptamer) ACTCATCTGTGAAGAGAAGCAGCACAGAGGTCAGATGTCCGTCAGCCCCGATCGCCATCCAGGGACTCCCCCCTATGCCTATGCGTGCTACCGTGAA
Nature of the test: gold nanoparticle colorimetric assay, UV-Vis. Particulars: 250 mM NaCl; 1 µL of 50 mM compound in DMF added; room temperature; thiol oligos on gold nanoparticles.
For `CC(C)[C@H]1C(=O)N2CCC[C@H]2[C@]2(O)O[C@](NC(=O)[C@@H]3C=C4c5cccc6[nH]cc(c56)C[C@H]4N(C)C3)(C(C)C)C(=O)N12`, the binding result is listed as “no”.
To `N[C@@H](Cc1c[nH]c2ccccc12)C(=O)O` belongs “no”.
To `CN1C[C@H](CN)C[C@@H]2c3cccc4c3c(cn4C)C[C@H]21` belongs “yes”; to `O=C(N[C@H](CO)[C@H](O)c1ccc([N+](=O)[O-])cc1)C(Cl)Cl`, “no”.
The entry for `NCCc1c[nH]c2ccccc12` is “no”; for `CN1C[C@H](CNC(=O)OCc2ccccc2)C[C@@H]2c3cccc4c3c(cn4C)C[C@H]21` it is “yes”; for `CN(C)Cc1c[nH]c2ccccc12` it is “no”.
